Measurements reported in patent US20220125837A1, “METHODS FOR CONTROLLED ELIMINATION OF THERAPEUTIC CELLS” (Bellicum Pharmaceuticals, Inc., priority 2014, published 2022).

What was measured:
iFas-transduced CTLs = assay: CID-induced elimination of GFP+ iFas-transduced EBV-CTLs; assay type: cell-based, human; settings: GFPhigh, 1:1 with nontransduced, 10 nM CID, day 7
Source text: Caspase-9 was selected as an inducible proapoptotic molecule for clinical use rather than previously presented iFas and iFADD, because Caspase-9 acts relatively late in apoptosis signaling and therefore is expected to be less susceptible to inhibition by apoptosis inhibitors. Thus, suicide function should be preserved not only in malignant, transformed T-cell lines that express antiapoptotic molecules, but also in subpopulations of normal T cells that express elevated antiapoptotic molecules as part of the process to ensure long-term preservation of memory cells. To further investigate the hypothesis, the function of iCasp9M and iFas was first compared in EBV-CTLs. To eliminate any potential vector based difference, inducible Fas also was expressed in the MSCV.IRES.GFP vector, like iCasp9. […]
Elimination of GFP^+ cells after administration of 10 nM CID was more rapid and more efficient in iCasp9M than in iFas-transduced CTLs (99.2%+/−0.14% of iCasp9M-transduced cells compared with 89.3%+/−4.9% of iFas-transduced cells at day 7 after CID; P<0.05). On the day of LCL stimulation, 10 nM CID was administered, and GFP was measured at the time points indicated to determine the response to CID. […]

[1] = test system: iCasp9-ΔCD19-transduced MSCs; assay: In vivo killing of iCasp9 MSCs in SCID mice (luminescence, qPCR)
Description: All mouse experiments were performed in accordance with the Baylor College of Medicine animal husbandry guidelines. To assess the persistence of modified MSCs in vivo, a SCID mouse model was used in conjunction with an in vivo imaging system. MSCs were transduced with retroviruses coding for the enhanced green fluorescent protein-firefly luciferase (eGFP-FFLuc) gene alone or together with the iCasp9-ΔCD19 gene. Cells were sorted for eGFP positivity by fluorescence activated cell sorting using a MoFlo flow cytometer (Beckman Coulter, Fullerton, Calif.). Doubly transduced cells were also stained with PE-conjugated anti-CD19 and sorted for PE-positivity. SCID mice (8-10 weeks old) were injected subcutaneously with 5×10^5 MSCs with and without iCasp9-ΔCD19 in opposite flanks. […] For in vivo imaging of MSCs expressing eGFP-FFLuc, mice were injected intraperitoneally with D-luciferin (150 mg/kg) and analyzed using the Xenogen-IVIS Imaging System. Total luminescence (a measurement proportional to the total labeled MSCs deposited) at each time point was calculated by automatically defining regions-of-interest (ROIs) over the MSC implantation sites. These ROIs included all areas with luminescence signals at least 5% above background. Total photon counts were integrated for each ROI and an average value calculated. […]

virus-specific T cells = assay: AP20187 on allostimulated gene-modified cells, pentamer analysis of virus-specific T cells; assay type: cell-based, human; settings: 10 nM; after 4 days reactivation with allogeneic PBMC
Description: In some experiments, cells also were cultured for 3 weeks post transduction and stimulated with 30G-irradiated allogeneic PBMC at a responder:stimulator ratio of 1:1. After 4 days of co-culture, a portion of cells was treated with 10 nM AP20187. Killing was measured by annexin V/7-AAD staining at 24 hours, and the effect of dimerizer on bystander virus-specific T cells was assessed by pentamer analysis on AP20187-treated and untreated cells.
An observation of note was that many virus-specific T cells were spared when dimerizer was used to deplete gene-modified cells that have been re-activated with allogeneic PBMC, rather than by non-specific mitogenic stimuli. […] Gene-modified allodepleted cells were maintained in culture for 3 weeks post-transduction to allow transgene down-modulation. Cells were stimulated with allogeneic PBMC for 4 days, following which a portion was treated with 10 nM AP20187.
The frequency of EBV-specific T cells and CMV-specific T cells were quantified by pentamer analysis before allostimulation, after allostimulation, and after treatment of allostimulated cells with dimerizer. The percentage of virus-specific T cells decreased after allostimulation. Following treatment with dimerizer, virus-specific T cells were partially and preferentially retained.

MT-2 cells = assay: CID-induced apoptosis (annexin V) in transduced MT-2 cells; assay type: cell-based, human; settings: 10 nM CID for 8 hours

CC[C@H](C(=O)N1CCCC[C@H]1C(=O)O[C@H](CCc1ccc(OC)c(OC)c1)c1cccc(OCC(=O)NCC(CNC(=O)COc2cccc([C@@H](CCc3ccc(OC)c(OC)c3)OC(=O)[C@@H]3CCCCN3C(=O)[C@@H](CC)c3cc(OC)c(OC)c(OC)c3)c2)CN(C)C)c1)c1cc(OC)c(OC)c(OC)c1 [AP20187]
Elimination of GFP+ cells (iFas-transduced CTLs): 89.3%+/−4.9%
surviving iCasp9-positive cells, % of the original population ([1]; after one week): 0.7%
killing / depletion of iCasp9-positive cells in vivo ([1]; two injections of 50 μg of CID 24 hours apart, qPCR): > 99%
effect on virus-specific T cells (virus-specific T cells): spares (and thereby enriches) viral reactive subpopulations
apoptosis (annexin-V staining) (MT-2 cells; iCasp9M-transduced MT-2): 57.9%+/−11.9%
apoptosis (annexin-V staining) (MT-2 cells; iFas-transduced MT-2): 19.3%+/−8.4%
